Tested on: fibroblasts from CF subjects, heterozygote carriers and controls
Assay: O2 consumption of skin fibroblast suspensions measured polarographically, with electron transport inhibitors
Type: cell-based, human
Experimental: Skin fibroblast strains from the upper arm were obtained from subjects with CF and age- and sex-matched controls and from obligate CF heterozygote parents and their age- and sex-matched controls. Cells were stored in liquid nitrogen at early passages and thawed for use as needed. In all but a few experiments, strains were passage matched. For O2 consumption studies and mitochondrial preparations, monolayers were grown in 285×115 mm roller bottles (Bellco Glass, N.J.). For NADH dehydrogenase studies, monolayers were grown in 75 cm^2 flasks (Falcon, Oxnard, Ca.). Monolayers were cultured in Eagle's minimal essential medium with Earle's salts plus L-glutamine (K. C. Biologicals, Inc., Lenexa, Kans.), supplemented with 10 percent fetal calf serum, 100 units per ml of penicillin, and 100 μg/ml of streptomycin (Gibco, Grand Island, N.Y.). The cultures were maintained at 37° in 95 percent air-5 percent CO2 atmosphere. Cells were harvested with trypsin-EDTA [(1:250 tryspin+0.2 g EDTA/1 (Gibco, Grand Island, N.Y.)].
Confluent monolayers of fibroblasts as prepared in Example 1 were harvested by trypsin-EDTA digestion. Cells were pelleted by centrifugation at 600×g for 5 min, washed with 10 ml of cold Hank's Balanced Salt Solution (HBSS) containing 0.1 mg/ml bovine serum albumin and 10 mg/ml dextrose, pH 7.4. 100 μl aliquots of the washed cell suspension were taken for cell counting using a ZBI Coulter Counter. The washed cells were again pelleted by centrifugation and resuspended in 1 ml cold HBSS. O2 consumption was measured polarographically on a cell suspension of 1×10^7 cells in a final volume of 3 ml by an O2 electrode system (Clark model 53, Yellow Springs Instruments, Ohio). […] In these experiments the baseline O2 uptake rate was determined for each cell line. Prior to removing the cells from the electrode chamber, 100 μl of 100 μ M rotenone were added and O2 consumption recorded. […]
The change in O2 consumption rate caused by rotenone was recorded as percent of initial O2 consumption rate. Each point represents percent inhibition measured on one cell strain.

`C=C(C)[C@H]1Cc2c(ccc3c2O[C@@H]2COc4cc(OC)c(OC)cc4[C@@H]2C3=O)O1` [rotenone] was tested, and the “Inhibition of O2 consumption (change in O2 consumption rate as percent of initial rate)” value (100 μl of 100 μM rotenone added to 1×10^7 cells in 3 ml, all cell strains tested) was “inhibited O2 consumption in all cell strains tested”, the “Relative inhibitory effect on O2 consumption among genotypes” value (100 μl of 100 μM rotenone, CF, HZ (carrier) and control fibroblast strains, FIG. 5) was “CF>HZ>controls” and the “O2 consumption after treatment with the inhibitor, compared between genotypes” value (cells treated with rotenone, CF subjects, carriers, controls) was “cells from cystic fibrosis subjects and carriers consume equal amounts of oxygen, as do controls”.

— patent US4273869A, “Cystic fibrosis detection method” (The Regents of the University of Minnesota, priority 1979, dated 1981)
